Source: US7186840B2, “Quinoline derivatives as anti-inflammatory agents” (Roche Palo Alto LLC, priority 2000, dated 2007)

Legend:
COX II = target: T1, COX II (Homo sapiens, UniProt P35354); assay: Inhibition of COX II in vitro (radiometric assay); type: biochemical; settings: partially purified enzyme, 10 min preincubation, 20 micromolar [14C]arachidonic acid
T1 construct: made in house
T1 sequence (P35354 18-604): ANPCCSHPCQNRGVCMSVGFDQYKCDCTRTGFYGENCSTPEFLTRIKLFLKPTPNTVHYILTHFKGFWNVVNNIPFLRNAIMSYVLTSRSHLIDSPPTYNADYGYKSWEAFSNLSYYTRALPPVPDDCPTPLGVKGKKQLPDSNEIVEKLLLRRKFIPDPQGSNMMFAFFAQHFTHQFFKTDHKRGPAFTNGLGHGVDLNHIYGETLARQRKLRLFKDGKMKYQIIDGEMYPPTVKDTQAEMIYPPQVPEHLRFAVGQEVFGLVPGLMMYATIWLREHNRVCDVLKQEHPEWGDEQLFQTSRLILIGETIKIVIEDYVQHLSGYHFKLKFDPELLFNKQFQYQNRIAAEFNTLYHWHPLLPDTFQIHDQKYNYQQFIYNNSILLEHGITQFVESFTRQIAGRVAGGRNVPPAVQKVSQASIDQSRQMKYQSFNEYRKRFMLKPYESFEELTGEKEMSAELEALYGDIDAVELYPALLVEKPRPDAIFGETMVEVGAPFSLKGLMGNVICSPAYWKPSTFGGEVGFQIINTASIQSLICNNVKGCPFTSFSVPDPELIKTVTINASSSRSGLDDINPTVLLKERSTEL
Protocol: (§1) The COX I and COX II inhibitory activity of compounds of this invention in vitro was determined using partially purified COX I and COX II enzymes, prepared as described in J. Barnett et. al., Biochim Biophys. Acta, 1209, 130–139 (1994).
(§2) COX I and COX II samples were diluted with Tris-HCl buffer (50 mM Tris-HCl, pH 7.9) containing 2 mM EDTA and 10% glycerol and reconstituted by incubating first with 2 mM phenol for 5 minutes and then with 1 micromolar hematin for an additional 5 minutes. 125 μl of the reconstituted COX I or COX II enzyme were preincubated for 10 minutes at room temperature in a shaking water bath with the compounds of the invention dissolved in 2–15 μl of DMSO or the carrier vehicles (control samples). The enzyme reaction was initiated by adding 25 μl of 1-[14 C]arachidonic acid (80,000–100,000 cpm/tube; 20 micromolar final concentration) and the reaction was allowed to continue for an additional 45 seconds. The reaction was terminated by adding 100 μl of 2N HCl and 750 μl water. An aliquot (950 μl) of the reaction mixture was loaded onto a 1 mL C18 Sep-Pak column (J. T. Baker, Phillipsburg, N.J.) which had been previously washed with 2–3 mL methanol and equilibrated with 5–6 mL distilled water. Oxygenated products were quantitatively eluted with 3 mL of acetonitrile/water/acetic acid (50:50:0.1, v/v) and the radioactivity in the eluate determined in a scintillation counter.
(§3) The COX inhibitory activities (expressed as IC50, the concentration causing 50% inhibition of the COX enzyme being assayed) of some exemplary compounds of the invention were: […]

COX I = target: T2, COX I (Homo sapiens, UniProt P23219); assay: Inhibition of COX I in vitro (radiometric assay); type: biochemical; settings: partially purified enzyme, 10 min preincubation, 20 micromolar [14C]arachidonic acid
T2 construct: made in house
T2 sequence (P23219 24-599): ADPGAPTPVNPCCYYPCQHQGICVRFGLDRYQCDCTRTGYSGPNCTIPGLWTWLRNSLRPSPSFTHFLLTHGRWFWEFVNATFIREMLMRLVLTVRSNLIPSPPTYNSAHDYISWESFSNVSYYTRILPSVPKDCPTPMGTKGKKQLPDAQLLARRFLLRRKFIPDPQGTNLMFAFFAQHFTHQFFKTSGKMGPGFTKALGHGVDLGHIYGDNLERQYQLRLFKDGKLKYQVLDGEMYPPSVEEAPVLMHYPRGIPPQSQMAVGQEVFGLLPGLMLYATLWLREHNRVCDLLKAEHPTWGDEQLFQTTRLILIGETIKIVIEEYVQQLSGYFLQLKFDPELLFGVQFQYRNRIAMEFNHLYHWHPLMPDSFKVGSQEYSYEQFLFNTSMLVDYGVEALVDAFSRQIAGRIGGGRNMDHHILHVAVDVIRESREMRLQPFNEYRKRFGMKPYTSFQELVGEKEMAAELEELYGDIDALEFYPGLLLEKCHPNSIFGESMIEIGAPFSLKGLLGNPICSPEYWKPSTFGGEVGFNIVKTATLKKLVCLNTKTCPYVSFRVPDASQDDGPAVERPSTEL
Protocol: as §1, §2, §3

IC50 (COX II) | IC50 (COX I) | Compound
< 0.2 µM | > 40 µM | COc1ccc2nc(S(C)(=O)=O)ccc2c1Sc1ccc(F)cc1F [Cpd 101, 5-(2,4-Difluoro-phenylsulfanyl)-2-methanesulfonyl-6-methoxy-quinoline]
< 0.2 µM | > 40 µM | COc1ccc2nc(S(C)(=O)=O)ccc2c1Sc1ccccc1Cl [Cpd 104, 5-(2-chloro-phenylsulfanyl)-2-methanesulfonyl-6-methoxy-quinoline]
< 0.2 µM | > 40 µM | COc1ccc2nc(S(C)(=O)=O)ccc2c1Sc1ccc(F)cc1Cl [Cpd 105, 5-(2-chloro-4-fluoro-phenylsulfanyl)-2-methanesulfonyl-6-methoxy-quinoline]
< 0.3 µM | > 40 µM | COc1ccc2nc(S(C)(=O)=O)ccc2c1Sc1ccc(Br)cc1 [Cpd 106, 5-(4-bromo-phenylsulfanyl)-2-methanesulfonyl-6-methoxy-quinoline]
< 0.3 µM | > 40 µM | COc1ccc2nc(S(C)(=O)=O)ccc2c1Sc1ccc(Cl)cc1Cl [Cpd 107, 5-(2,4-dichloro-phenylsulfanyl)-2-methanesulfonyl-6-methoxy-quinoline]
